Reference: ChEMBL document CHEMBL3507680, “University of Dundee, Gates Library screen for HepG2 cell viability”

Experiment: Human HepG2 cell viability assay in 384 well format
Assay type: toxicity, cell-based
Set-up: dose 125 nL, time 70.5 hour; cytotoxicity at 70.5 h: concentration not given beside the values
Settings: HepG2 cells, read-out: Inhibition

Structure (SMILES) | cytotoxicity at 70.5 h [%]
CCn1nnc2cc(C(=O)N3CCCC3Cn3cc(C)cn3)ccc21 (configuration not stated) | -19.4
Cc1occc1C(=O)N1CCC2(CCN(Cc3nccs3)CC2)C1 | -5.43
CCc1nnc2n1CCN(Cc1cc(Cl)c3c(c1)OCCO3)C2 | 21.4
CC(C(=O)NCCOc1ccc2c(c1)CCC2)n1cncn1 (configuration not stated) | 7.17
O=C(c1cncc(N2CCC(O)(CO)CC2)n1)N1CCCC1 | -9.52
CCCn1[nH]cc/c1=N\C(=O)CN1CCc2cnc(C(C)C)nc2C1 | -3.5
CCn1c(CN(C)C)nnc1C1CCN(Cc2cnc(C)nc2)CC1 | -5.5
Cc1cn(CC(=O)NCC(=O)NC2CC2)c2ccccc12 | -0.742
Cc1cccnc1CC(C)N(C)C(=O)c1ccoc1C (configuration not stated) | 5.46
O=C(C1CCN(c2snc3ccccc23)CC1)N1CCCCCC1 | 28.1
CCOCCNC(=O)c1cc(COc2cncc(Cl)c2)on1 | -0.86
CCCNC(=O)N1CCN(Cc2cc(C)no2)CC1 | -8.29
O=C(c1cc2ccccc2c(=O)[nH]1)N1CCN(CCO)CC1 | -4.06
CCS(=O)(=O)N1Cc2ncn(CC3CC3)c2C(COCC2CC2)C1 (configuration not stated) | 1.64
CCS(=O)(=O)N1CCOC2(CCCN(c3ncc(F)cn3)C2)C1 (configuration not stated) | -4.67
O=C(Cn1ccnc1)N1C[C@@H]2CC[C@H](Oc3ccccc3Cl)[C@@H]2C1 | 1.01
Cc1nccn1-c1ccc(CNC(=O)c2ccc([S+](C)[O-])cc2)cn1 (configuration not stated) | -3.4
COC(=O)N1CCCC(NC(=O)NCc2nc(C)cs2)C1 (configuration not stated) | -8.72
CC(C)COCC(NC(=O)CSc1nnc[nH]1)c1ccco1 (configuration not stated) | -12.5
COC(=O)c1ccccc1S(=O)(=O)NC(=O)c1cccc2c1OCCO2 | -100
CC(Cc1cn(CCc2nnn[nH]2)nn1)c1ccccc1 (configuration not stated) | -5.17

Structure (SMILES) | cytotoxicity at 70.5 h [%]
COc1ccc(-c2nnc([C@H]3CCN(C4CCC4)C3)o2)cc1 | -0.264
CC(O)c1cccc(-n2c(CCC(=O)O)nc3ccccc32)c1 (configuration not stated) | -8.25
CN1CCCN(CC(=O)N2CCc3[nH]c(-c4ccccc4)nc3C2)CC1 | -1.3
CNS(=O)(=O)CCN1CC(c2ccccc2)(c2ccccc2)CCC1=O | 5.38
CC(C)Nc1nc(N2CCCC2)nc2c1CN(S(C)(=O)=O)CC2 | -1.08
CN(CCNC(=O)Nc1nccs1)Cc1ccc(F)cc1 | -13.1
Cn1cc(S(=O)(=O)NCc2ccsc2)cn1 | 13.8
CCC(CNC(=O)c1cncc(Br)c1)N1CCc2ccccc2C1 (configuration not stated) | -5.93
CCCS(=O)(=O)N1C[C@H]2C[C@H](C(=O)N(C)C)[C@@H](C1)O2 | -13.7
Cc1cc(CN2CC[C@H]3[C@H]2CCN3S(C)(=O)=O)oc1C | -8.76
Cc1cc(-c2ccnn2C)nc(C2CCCN(S(C)(=O)=O)C2)n1 (configuration not stated) | -13.9
CC(C)C1CN(C(=O)c2cc(F)cc3[nH]cnc23)CCS1 (configuration not stated) | -2.35
Cc1ccc(C(=O)N2CCn3cnc(COCC4CC4)c3C2)cn1 | -5.4
COc1cccc(CN2CCC3(CCN(C(=O)C4CC=CC4)CC3)C2)c1 | -3.83
CCn1nc(C)c2nnn(CC(=O)Nc3ccc(C)cc3)c(=O)c21 | -4.64
CNC(=O)c1ccc(-c2ccc(CNC(=O)COC)cc2)nc1C | -10.8
COCC(=O)N1C[C@H]2CNC[C@@]2(C(=O)NCc2c(C)noc2C)C1 | -0.367
O=C(C1CCOCC1)N(CCc1ccccc1)C1CCOC1 (configuration not stated) | 8.62
CC(C)CN1C(=O)CC[C@H]2CN(C(=O)Cn3ccc(=O)cc3)CC[C@H]21 | 21.4
Cc1cnn(CC2CCCN2C(=O)c2cc3ccccc3[nH]2)c1 (configuration not stated) | 8.1
NC(=O)C1(CNC(=O)CCc2ccc(Cl)s2)CCOCC1 | -7.77

Structure (SMILES) | cytotoxicity at 70.5 h [%]
CC1CN(CCOc2ccccc2C#N)CCN1Cc1nccn1C (configuration not stated) | -12.6
CCc1csc(C2CCCN(C(=O)c3ccnc(N(C)C)c3)C2)n1 (configuration not stated) | 19.9
CN(C)C(=O)COCC1CN(Cc2ccoc2)Cc2nnn(C)c21 (configuration not stated) | 15
COc1ccccc1N1CCN(Cc2cnc3c(c2)c(C)nn3C)CC1 | -11.4
Cc1nc(N2CCOCC2)nc(C)c1NC(=O)c1ccco1 | 3.55
CCCc1n[nH]c(C2CN(C(=O)c3cccc4cn[nH]c34)CCO2)n1 (configuration not stated) | -5.95
CCc1nc(CN2CCCC(NCc3cnc(C)s3)C2)no1 (configuration not stated) | 22.5
CCCNC(=O)NC(=O)CN1C=Nc2ccccc2S1(=O)=O | -11.8
CC1=Nc2c(c(=O)[nH]n2C(C)C)C(c2ccccc2)S1 (configuration not stated) | -3.86
CCOc1ncccc1CNCc1c(C)nn(C)c1N(C)C | 24.1
CCOc1ccc(NC(=O)Cn2cc(I)cn2)cc1 | -18.2
Cc1nc(C(=O)NCCS(=O)(=O)N2CCCC2)cs1 | 13.7
Cc1nn(C)cc1CN1CCCC1c1cccc(Nc2nccs2)n1 (configuration not stated) | 35.9
CSc1ccccc1CCC1CCS(=O)(=O)C1 (configuration not stated) | -1.45
Cc1nn(C)c2c(NCc3ccncc3)nc(C3CC3)nc12 | 3.06
CC(C)CNC(=O)C1(Cc2ccccc2-c2cccs2)CCNC1 (configuration not stated) | -0.684
Cn1nnc2c1CCN(Cc1ccoc1)C2COCc1ccccc1 (configuration not stated) | 1.66
CN(C)C(c1ccccn1)[C@H]1CC[C@H](CNC(=O)C2CCCC2)CC1 (some centres not stated) | -2.3
CC(C)n1cnnc1C1CCCN(S(=O)(=O)CCCF)C1 (configuration not stated) | -93.6
CNC(=O)CC1CC2(CCN(CC3CC3)CC2)Oc2ccccc21 (configuration not stated) | -6.72
O=C(Cn1nc(-c2ccc(F)cc2)oc1=O)NCc1ccncc1 | -12.1

Structure (SMILES) | cytotoxicity at 70.5 h [%]
Cc1nc(C)c(C(=O)N2CCCC2(C)C(=O)NC2CCCC2)s1 (configuration not stated) | -3.63
COCc1nc(CN2CCN(c3ccc(OC)cc3)C(=O)C2C)no1 (configuration not stated) | -27.3
CC(C)CC(=O)N1CCN(Cc2csc(-c3ncccn3)n2)CC1 | -5.3
O=C(Nc1ccccn1)NC(CCCO)c1ccccc1 (configuration not stated) | -5.11
Cc1nn(C)c(C)c1C1CCCN1CC(=O)NCc1ccco1 (configuration not stated) | 7.36
O=C(c1ccc[nH]1)N1CCn2cc(Cn3cncn3)nc2C1 | -9.02
CS(=O)(=O)NC1CC2(CCN(CC3CC3)CC2)Oc2ccccc21 (configuration not stated) | 1.75
OC1(CNCc2cnc(N3CCOCC3)nc2)CCCCC1 | -5.66
CC(=O)N1CCC(NC(=O)c2cc(S(N)(=O)=O)ccc2C)CC1 | -3.13
Cc1nnc(NCc2ccc(SC(F)F)cc2)o1 | 14.2
CCn1cc(NC(=O)Nc2ccc3c(c2)OCCO3)cn1 | -5.76
CN(C)c1cccc(C(=O)N2CCC(c3n[nH]c(C4CC4)n3)CC2)c1 | -5.06
CC(C)CCN1CC2(CCCN(C(=O)NCc3cccs3)C2)CCC1=O (configuration not stated) | -2.43
O=C(CN1CCCc2sccc2C1=O)NC1CCc2nccn2C1 (configuration not stated) | 23.3
Cc1cc(CN(C)C(=O)NC(C)Cc2ccc(O)cc2)no1 (configuration not stated) | 0.825
CC(C)(C)c1coc([C@@H]2COCCN2Cc2ccccc2)n1 | 0.308
O=c1[nH]nc2c(S(=O)(=O)N3CCCCC3)cccn12 | -0.253
CCCNC(=O)NCc1cccnc1OC | -5.64
Cc1ccc(CN2CCC3(CC2)CCN(Cc2ccoc2)CC3)cc1 | -5.46
